{
  "source": "patent US20240336697A1",
  "about": "“METHODS OF USING ANTI-CD79B IMMUNOCONJUGATES TO TREAT DIFFUSE LARGE B-CELL LYMPHOMA” (Genentech, Inc., priority 2021, published 2024)",
  "key": {"P-glycoprotein (P-gp)": {"target": "P-glycoprotein (P-gp) (Homo sapiens, UniProt P08183)", "sequence (P08183 whole entry)": "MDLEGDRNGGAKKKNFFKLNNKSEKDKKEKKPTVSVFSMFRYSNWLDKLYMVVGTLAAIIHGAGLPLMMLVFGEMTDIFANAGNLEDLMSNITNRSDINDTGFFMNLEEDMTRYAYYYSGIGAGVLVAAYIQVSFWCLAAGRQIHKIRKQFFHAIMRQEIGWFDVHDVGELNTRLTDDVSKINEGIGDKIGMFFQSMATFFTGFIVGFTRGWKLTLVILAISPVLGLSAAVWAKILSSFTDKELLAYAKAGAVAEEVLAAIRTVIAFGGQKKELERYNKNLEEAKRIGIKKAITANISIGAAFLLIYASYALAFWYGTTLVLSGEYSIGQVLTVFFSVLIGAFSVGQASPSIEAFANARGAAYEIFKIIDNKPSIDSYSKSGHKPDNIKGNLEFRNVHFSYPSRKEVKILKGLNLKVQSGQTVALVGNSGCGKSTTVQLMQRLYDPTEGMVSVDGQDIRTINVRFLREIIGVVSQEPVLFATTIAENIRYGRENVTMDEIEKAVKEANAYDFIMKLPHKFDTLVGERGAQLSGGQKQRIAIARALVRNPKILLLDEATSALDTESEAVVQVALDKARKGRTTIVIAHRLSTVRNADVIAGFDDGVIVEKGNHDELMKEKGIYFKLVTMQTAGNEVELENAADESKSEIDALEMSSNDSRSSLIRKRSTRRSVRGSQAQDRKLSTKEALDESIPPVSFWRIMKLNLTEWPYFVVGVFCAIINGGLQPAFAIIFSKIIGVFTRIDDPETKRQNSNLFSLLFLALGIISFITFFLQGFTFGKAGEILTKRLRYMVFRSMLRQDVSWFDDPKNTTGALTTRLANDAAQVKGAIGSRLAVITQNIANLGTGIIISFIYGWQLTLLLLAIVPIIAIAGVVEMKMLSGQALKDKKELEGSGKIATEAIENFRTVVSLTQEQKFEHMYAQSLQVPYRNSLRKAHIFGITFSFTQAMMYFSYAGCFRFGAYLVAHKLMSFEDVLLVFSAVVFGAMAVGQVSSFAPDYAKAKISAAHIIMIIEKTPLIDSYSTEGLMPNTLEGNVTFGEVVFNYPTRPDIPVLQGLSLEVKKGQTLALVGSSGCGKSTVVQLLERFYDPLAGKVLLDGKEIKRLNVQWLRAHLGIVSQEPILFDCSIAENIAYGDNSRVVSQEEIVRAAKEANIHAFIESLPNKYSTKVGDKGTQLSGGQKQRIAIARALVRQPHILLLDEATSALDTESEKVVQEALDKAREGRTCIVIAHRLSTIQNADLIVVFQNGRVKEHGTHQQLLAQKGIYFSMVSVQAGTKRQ", "experiment": "P-glycoprotein substrate / inhibitor status", "type": "in vitro ADME", "text": "(§1) Based on a validated physiological-based PK model simulation, strong CYP3A4 inhibitors may increase the exposure (e.g., area under the concentration-time curve) of unconjugated MMAE by ˜50% while acMMAE PK is not affected. Concomitant medications that are strong CYP3A4 inhibitors are considered cautionary as they may potentially lead to adverse reactions, which require close monitoring. […] Concomitant medications that are P-gp inhibitors are considered cautionary as they may potentially lead to adverse reactions, which require close monitoring."}, "CYP3A4": {"target": "CYP3A4 (Homo sapiens, UniProt P08684)", "sequence (P08684 whole entry)": "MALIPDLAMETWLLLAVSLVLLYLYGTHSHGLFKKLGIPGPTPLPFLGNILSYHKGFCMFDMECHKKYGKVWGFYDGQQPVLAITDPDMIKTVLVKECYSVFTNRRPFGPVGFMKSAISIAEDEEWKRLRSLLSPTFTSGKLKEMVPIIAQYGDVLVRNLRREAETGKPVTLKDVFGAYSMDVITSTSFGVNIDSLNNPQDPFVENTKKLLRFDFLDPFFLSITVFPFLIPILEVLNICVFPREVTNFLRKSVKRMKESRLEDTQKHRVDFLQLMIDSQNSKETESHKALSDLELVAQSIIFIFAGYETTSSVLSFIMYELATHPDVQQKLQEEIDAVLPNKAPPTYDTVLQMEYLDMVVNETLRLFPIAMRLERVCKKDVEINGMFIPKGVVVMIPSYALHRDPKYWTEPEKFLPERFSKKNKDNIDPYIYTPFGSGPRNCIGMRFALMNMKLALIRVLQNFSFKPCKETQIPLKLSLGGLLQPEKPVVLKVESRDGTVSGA", "experiment": "In vitro metabolism of unconjugated MMAE", "type": "in vitro ADME", "conditions": "in vitro data", "text": "as §1"}},
  "note": "Where a SMILES comes first, the peptide text is derived from it. [ ]: non-standard residue; d: D form. The star is where a group is joined. Dolaproine = CO[C@@H]([C@@H]1CCCN1)[C@@H](C)C(=O)O; Dil = CC[C@H](C)[C@H](NC)[C@@H](CC(=O)O)OC; X1 = C[C@@H](N*)[C@@H](O)c1ccccc1; NMeV = CN[C@H](C(=O)O)C(C)C",
  "data": [
    {"molecule": "CC[C@H](C)[C@@H]([C@@H](CC(=O)N1CCC[C@H]1[C@H](OC)[C@@H](C)C(=O)N[C@H](C)[C@@H](O)c1ccccc1)OC)N(C)C(=O)[C@@H](NC(=O)[C@@H](NC)C(C)C)C(C)C", "note": "[MMAE, monomethylauristatin E] (H-[NMeV]V[Dil][Dolaproine]-X1)", "values": [
      {"measurement": "P-gp inhibitor", "setting": "P-glycoprotein (P-gp)", "value": "not a P-gp inhibitor"},
      {"measurement": "metabolism of unconjugated MMAE by CYP3A4", "setting": "CYP3A4", "value": "mainly metabolized by CYP3A4"}
    ]}
  ]
}
